Species on record: Rattus norvegicus
Experiment: DrugMatrix - Regimen: Daily Repeat
Assay type: toxicity, organism-based, Sprague-Dawley
Set-up: regimen Daily Repeat, gender Male, age 6-8 weeks
Details: in vivo, po, route oral GAVAGE, vehicle 100 % SALINE; for ABSOLUTE BASOPHIL / ABSOLUTE EOSINOPHIL / ABSOLUTE LYMPHOCYTE / ABSOLUTE MONOCYTE / ABSOLUTE SEGMENTED NEUTROPHIL / BASOPHIL / EOSINOPHIL / ERYTHROCYTE COUNT / HEMATOCRIT / HEMOGLOBIN / LEUKOCYTE COUNT / LYMPHOCYTE / MEAN CORPUSCULAR HEMOGLOBIN / MEAN CORPUSCULAR HEMOGLOBIN CONCENTRATION / MONOCYTE / NEUTROPHIL / NUCLEATED RED BLOOD CELLS / PLATELET COUNT: tissue Blood; for ALANINE AMINOTRANSFERASE / ALBUMIN / ALKALINE PHOSPHATASE / ASPARTATE AMINOTRANSFERASE / BLOOD UREA NITROGEN / CARBON DIOXIDE / CHOLESTEROL / CREATINE PHOSPHOKINASE / CREATININE / GLUCOSE / LACTATE DEHYDROGENASE / LIPASE / POTASSIUM / SODIUM / TOTAL BILIRUBIN / TOTAL PROTEIN / URIC ACID: tissue Plasma
[1] = 330 mg/kg, 120 h, dose level Low, time 5 day
[2] = 980 mg/kg, 72 h, dose level High, time 3 day
[3] = 980 mg/kg, 120 h, dose level High, time 5 day

## Nc1nc2c(ncn2COCCO)c(=O)[nH]1 [ACYCLOVIR]
[1]
  ABSOLUTE BASOPHIL: 0 CELLS/uL
  ABSOLUTE EOSINOPHIL: 23.33 CELLS/uL
  ABSOLUTE LYMPHOCYTE: 6827.33 CELLS/uL
  ABSOLUTE MONOCYTE: 23.33 CELLS/uL
  ABSOLUTE SEGMENTED NEUTROPHIL: 459.33 CELLS/uL
  BASOPHIL: 0%
  EOSINOPHIL: 0.33%
  ERYTHROCYTE COUNT: 5.77 x10E6/uL
  HEMATOCRIT: 36%
  HEMOGLOBIN: 13.93 G/DL
  LEUKOCYTE COUNT: 7.33 x10E3/uL
  LYMPHOCYTE: 92.67%
  MEAN CORPUSCULAR HEMOGLOBIN: 24.17 pg
  MEAN CORPUSCULAR HEMOGLOBIN CONCENTRATION: 38.7 G/DL
  MONOCYTE: 0.33%
  NEUTROPHIL: 6.67%
  NUCLEATED RED BLOOD CELLS: 0 /100WBC
  PLATELET COUNT: 980.67 x10E3/uL
  ALANINE AMINOTRANSFERASE: 54 u/L
  ALBUMIN: 4.1 G/DL
  ALKALINE PHOSPHATASE: 310 u/L
  ASPARTATE AMINOTRANSFERASE: 89.33 u/L
  BLOOD UREA NITROGEN: 14 mg/dL
  CARBON DIOXIDE: 31 mmol/L
  CHOLESTEROL: 71.33 mg/dL
  CREATINE PHOSPHOKINASE: 331 u/L
  CREATININE: 0.35 mg/dL
  GLUCOSE: 149.67 mg/dL
  LACTATE DEHYDROGENASE: 119.33 u/L
  LIPASE: 11.67 u/L
  POTASSIUM: 6.3 MEQ/L
  SODIUM: 145.23 MEQ/L
  TOTAL BILIRUBIN: 0.17 mg/dL
  TOTAL PROTEIN: 5.87 G/DL
  URIC ACID: 0.97 mg/dL
[2]
  ABSOLUTE BASOPHIL: 0 CELLS/uL
  ABSOLUTE EOSINOPHIL: 28.33 CELLS/uL
  ABSOLUTE LYMPHOCYTE: 6898 CELLS/uL
  ABSOLUTE MONOCYTE: 45.67 CELLS/uL
  ABSOLUTE SEGMENTED NEUTROPHIL: 428 CELLS/uL
  BASOPHIL: 0%
  EOSINOPHIL: 0.33%
  ERYTHROCYTE COUNT: 5.27 x10E6/uL
  HEMATOCRIT: 32.97%
  HEMOGLOBIN: 12.8 G/DL
  LEUKOCYTE COUNT: 7.4 x10E3/uL
  LYMPHOCYTE: 93%
  MEAN CORPUSCULAR HEMOGLOBIN: 24.37 pg
  MEAN CORPUSCULAR HEMOGLOBIN CONCENTRATION: 38.87 G/DL
  MONOCYTE: 0.67%
  NEUTROPHIL: 6%
  NUCLEATED RED BLOOD CELLS: 0 /100WBC
  PLATELET COUNT: 1125.67 x10E3/uL
  ALANINE AMINOTRANSFERASE: 47.33 u/L
  ALBUMIN: 4.07 G/DL
  ALKALINE PHOSPHATASE: 321 u/L
  ASPARTATE AMINOTRANSFERASE: 79.33 u/L
  BLOOD UREA NITROGEN: 12.67 mg/dL
  CARBON DIOXIDE: 28.33 mmol/L
  CHOLESTEROL: 67.33 mg/dL
  CREATINE PHOSPHOKINASE: 458 u/L
  CREATININE: 0.23 mg/dL
  GLUCOSE: 154 mg/dL
  LACTATE DEHYDROGENASE: 123 u/L
  LIPASE: 9.67 u/L
  POTASSIUM: 5.85 MEQ/L
  SODIUM: 142.43 MEQ/L
  TOTAL BILIRUBIN: 0.17 mg/dL
  TOTAL PROTEIN: 5.77 G/DL
  URIC ACID: 0.9 mg/dL
[3]
  ABSOLUTE BASOPHIL: 0 CELLS/uL
  ABSOLUTE EOSINOPHIL: 32 CELLS/uL
  ABSOLUTE LYMPHOCYTE: 9269.33 CELLS/uL
  ABSOLUTE MONOCYTE: 115 CELLS/uL
  ABSOLUTE SEGMENTED NEUTROPHIL: 383.67 CELLS/uL
  BASOPHIL: 0%
  EOSINOPHIL: 0.33%
  ERYTHROCYTE COUNT: 5.83 x10E6/uL
  HEMATOCRIT: 35.13%
  HEMOGLOBIN: 13.9 G/DL
  LEUKOCYTE COUNT: 9.8 x10E3/uL
  LYMPHOCYTE: 94.33%
  MEAN CORPUSCULAR HEMOGLOBIN: 23.83 pg
  MEAN CORPUSCULAR HEMOGLOBIN CONCENTRATION: 39.6 G/DL
  MONOCYTE: 1.33%
  NEUTROPHIL: 4%
  NUCLEATED RED BLOOD CELLS: 0.33 /100WBC
  PLATELET COUNT: 783 x10E3/uL
  ALANINE AMINOTRANSFERASE: 46.67 u/L
  ALBUMIN: 4.17 G/DL
  ALKALINE PHOSPHATASE: 320.33 u/L
  ASPARTATE AMINOTRANSFERASE: 74 u/L
  BLOOD UREA NITROGEN: 15.67 mg/dL
  CARBON DIOXIDE: 29.33 mmol/L
  CHOLESTEROL: 57.67 mg/dL
  CREATINE PHOSPHOKINASE: 253.33 u/L
  CREATININE: 0.44 mg/dL
  GLUCOSE: 155.67 mg/dL
  LACTATE DEHYDROGENASE: 135.67 u/L
  LIPASE: 12 u/L
  POTASSIUM: 5.65 MEQ/L
  SODIUM: 145.17 MEQ/L
  TOTAL BILIRUBIN: 0.17 mg/dL
  TOTAL PROTEIN: 5.83 G/DL
  URIC ACID: 0.83 mg/dL

— ChEMBL document CHEMBL3885881, “DrugMatrix”
